Results as given in US20230348376A1 (TEIJIN PHARMA LIMITED, priority 2020, published 2023).

Target: T1, human VDR (Homo sapiens, UniProt P11473)
T1 sequence (P11473 1-427): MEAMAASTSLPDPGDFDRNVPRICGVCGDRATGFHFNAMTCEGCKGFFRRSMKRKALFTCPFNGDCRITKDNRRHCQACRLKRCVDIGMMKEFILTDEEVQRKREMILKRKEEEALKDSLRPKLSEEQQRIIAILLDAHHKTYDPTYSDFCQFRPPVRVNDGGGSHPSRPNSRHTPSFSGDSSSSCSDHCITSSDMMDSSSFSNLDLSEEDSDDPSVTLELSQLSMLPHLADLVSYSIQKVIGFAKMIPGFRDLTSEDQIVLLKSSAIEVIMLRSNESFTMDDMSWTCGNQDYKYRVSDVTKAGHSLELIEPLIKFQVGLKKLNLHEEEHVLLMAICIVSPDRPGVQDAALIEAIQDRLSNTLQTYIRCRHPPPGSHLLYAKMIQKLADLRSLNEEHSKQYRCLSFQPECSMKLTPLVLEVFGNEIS
T1 sequence (P19793 1-462 partner): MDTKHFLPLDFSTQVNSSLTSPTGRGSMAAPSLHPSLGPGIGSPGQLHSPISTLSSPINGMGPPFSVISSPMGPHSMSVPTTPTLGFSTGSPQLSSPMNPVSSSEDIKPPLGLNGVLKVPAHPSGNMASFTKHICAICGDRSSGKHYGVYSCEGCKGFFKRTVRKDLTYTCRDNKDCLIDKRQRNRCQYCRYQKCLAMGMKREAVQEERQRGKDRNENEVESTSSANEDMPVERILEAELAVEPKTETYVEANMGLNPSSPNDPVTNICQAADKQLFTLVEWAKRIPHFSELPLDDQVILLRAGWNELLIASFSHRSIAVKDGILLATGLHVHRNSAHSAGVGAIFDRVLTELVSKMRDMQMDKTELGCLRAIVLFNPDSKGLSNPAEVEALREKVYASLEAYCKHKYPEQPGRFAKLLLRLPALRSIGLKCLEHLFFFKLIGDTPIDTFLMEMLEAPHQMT
Assay: Evaluation of VDR transcription activity in human osteoblasts (HOS cells), luciferase reporter
Conditions: Activity (EC50, VDR transcription activity), HOS cells transfected with human VDR, human RXRα and DR3 luciferase reporter; 21 hours

| Compound | EC50 [nM] |
| --- | --- |
| C=C1[C@H](O)CC(=C/C=C2\CCC[C@]3(C)[C@@H]([C@H](C)CCN4CC[C@@H](CCC(F)F)C4)CC[C@@H]23)C[C@H]1O [Compound B094, (1R,3R)-5-(2-((1R,3aS,7aR,E)-1-((R)-4-((R)-3-(3,3-difluoropropyl)pyrrolidin-1-yl)butan-2-yl)-7a-methyloctahydro-4H-inden-4-ylidene)ethylidene)-2-methylenecyclohexane-1,3-diol] | 10 to 100 |
| C=C1/C(=C\C=C2/CCC[C@]3(C)[C@@H]([C@H](C)CN4CC[C@](C)(O)C4)CC[C@@H]23)C[C@@H](O)C[C@@H]1O [Compound B071, (1R,3S,Z)-5-(2-((1R,3aS,7aR,E)-1-((S)-1-((S)-3-hydroxy-3-methylpyrrolidin-1-yl)propan-2-yl)-7a-methyloctahydro-4H-inden-4-ylidene)ethylidene)-4-methylenecyclohexane-1,3-diol] | 10 to 100 |
| C=C1[C@H](O)CC(=C/C=C2\CCC[C@]3(C)[C@@H]([C@H](C)CCN4CC(OC(F)F)C4)CC[C@@H]23)C[C@H]1O [Compound A030, (1R,3R)-5-(2-((1R,3aS,7aR,E)-1-((R)-4-(3-(difluoromethoxy)azetidin-1-yl)butan-2-yl)-7a-methyloctahydro-4H-inden-4-ylidene)ethylidene)-2-methylenecyclohexane-1,3-diol] | 10 to 100 |
| C=C1[C@H](O)CC(=C/C=C2\CCC[C@]3(C)[C@@H]([C@H](C)CCN4CC[C@H](CC(F)F)C4)CC[C@@H]23)C[C@H]1O [Compound B090, (1R,3R)-5-(2-((1R,3aS,7aR,E)-1-((R)-4-((R)-3-(2,2-difluoroethyl)pyrrolidin-1-yl)butan-2-yl)-7a-methyloctahydro-4H-inden-4-ylidene)ethylidene)-2-methylenecyclohexane-1,3-diol] | 1 to 10 |
| C=C1/C(=C\C=C2/CCC[C@]3(C)[C@@H]([C@@H](C)CN4CC[C@H](C)C4)CC[C@@H]23)C[C@@H](O)C[C@@H]1O [Compound B010, (1R,3S,Z)-5-(2-((1R,3aS,7aR,E)-7a-methyl-1-((R)-1-((S)-3-methylpyrrolidin-1-yl)propan-2-yl)octahydro-4H-inden-4-ylidene)ethylidene)-4-methylenecyclohexane-1,3-diol] | 10 to 100 |
| C=C1[C@H](O)CC(=C/C=C2\CCC[C@]3(C)[C@@H]([C@H](C)CCN4CC(O)(C(F)(F)F)C4)CC[C@@H]23)C[C@H]1O [Compound A023, (1R,3R)-5-(2-((1R,3aS,7aR,E)-1-((R)-4-(3-hydroxy-3-(trifluoromethyl)azetidin-1-yl)butan-2-yl)-7a-methyloctahydro-4H-inden-4-ylidene)ethylidene)-2-methylenecyclohexane-1,3-diol] | < 1 |
| C[C@H](CN1CC[C@H](OC(F)(F)F)C1)[C@H]1CC[C@H]2/C(=C/C=C3CC(O)C[C@H](O)C3)CCC[C@]12C (stereo in doubt) [Compound B069, (1R,3S)-5-(2-((1R,3aS,7aR,E)-7a-methyl-1-((S)-1-((S)-3-(trifluoromethoxy)pyrrolidin-1-yl)propan-2-yl)octahydro-4H-inden-4-ylidene)ethylidene)cyclohexane-1,3-diol] | 10 to 100 |
| C=C1[C@H](O)CC(=C/C=C2\CCC[C@]3(C)[C@@H]([C@H](C)CCN4CC[C@H](C(F)F)C4)CC[C@@H]23)C[C@H]1O [Compound B088, (1R,3R)-5-(2-((1R,3aS,7aR,E)-1-((R)-4-((S)-3-(difluoromethyl)pyrrolidin-1-yl)butan-2-yl)-7a-methyloctahydro-4H-inden-4-ylidene)ethylidene)-2-methylenecyclohexane-1,3-diol] | 1 to 10 |
| C[C@H](CCN1CC[C@@H](C(F)F)C1)[C@H]1CC[C@H]2/C(=C/C=C3C[C@@H](O)C[C@H](O)C3)CCC[C@]12C [Compound B081, (1R,3R)-5-(2-((1R,3aS,7aR,E)-1-((R)-4-((R)-3-(difluoromethyl)pyrrolidin-1-yl)butan-2-yl)-7a-methyloctahydro-4H-inden-4-ylidene)ethylidene)cyclohexane-1,3-diol] | 10 to 100 |
| C[C@H](CCN1CC(OC(F)(F)F)C1)[C@H]1CC[C@H]2/C(=C/C=C3C[C@@H](O)C[C@H](O)C3)CCC[C@]12C [Compound A028, (1R,3R)-5-(2-((1R,3aS,7aR,E)-7a-methyl-1-((R)-4-(3-(trifluoromethoxy)azetidin-1-yl)butan-2-yl)octahydro-4H-inden-4-ylidene)ethylidene)cyclohexane-1,3-diol] | 100 to 1000 |
| C=C1/C(=C\C=C2/CCC[C@]3(C)[C@@H]([C@@H](C)CN4CC[C@@H](C(F)F)C4)CC[C@@H]23)C[C@@H](O)C[C@@H]1O [Compound B096, (1R,3S,Z)-5-(2-((1R,3aS,7aR,E)-1-((R)-1-((R)-3-(difluoromethyl)pyrrolidin-1-yl)propan-2-yl)-7a-methyloctahydro-4H-inden-4-ylidene)ethylidene)-4-methylenecyclohexane-1,3-diol] | 1 to 10 |
| C[C@H](CCCN1CC[C@H](F)C1)[C@H]1CC[C@H]2/C(=C/C=C3C[C@@H](O)C[C@H](O)C3)CCC[C@]12C [Compound B016, (1R,3R)-5-(2-((1R,3aS,7aR,E)-1-((R)-5-((S)-3-fluoropyrrolidin-1-yl)pentan-2-yl)-7a-methyloctahydro-4H-inden-4-ylidene)ethylidene)cyclohexane-1,3-diol] | 10 to 100 |
| C=C1[C@H](O)CC(=C/C=C2\CCC[C@]3(C)[C@@H]([C@H](C)CCN4CC[C@H](C(C)(F)F)C4)CC[C@@H]23)C[C@H]1O [Compound B091, (1R,3R)-5-(2-((1R,3aS,7aR,E)-1-((R)-4-((S)-3-(1,1-difluoroethyl)pyrrolidin-1-yl)butan-2-yl)-7a-methyloctahydro-4H-inden-4-ylidene)ethylidene)-2-methylenecyclohexane-1,3-diol] | 1 to 10 |
| C=C1[C@H](O)CC(=C/C=C2\CCC[C@]3(C)[C@@H]([C@H](C)CN4CC[C@@H](OCC(F)F)C4)CC[C@@H]23)C[C@H]1O [Compound B056, (1R,3R)-5-(2-((1R,3aS,7aR,E)-1-((S)-1-((R)-3-(2,2-difluoroethoxy)pyrrolidin-1-yl)propan-2-yl)-7a-methyloctahydro-4H-inden-4-ylidene)ethylidene)-2-methylenecyclohexane-1,3-diol] | 10 to 100 |

Next, values leading:

| EC50 [nM] | Compound |
| --- | --- |
| 1 to 10 | C=C1[C@H](O)CC(=C/C=C2\CCC[C@]3(C)[C@@H]([C@H](C)CCN4CCO[C@H](C(F)F)C4)CC[C@@H]23)C[C@H]1O [Compound D033, (1R,3R)-5-(2-((1R,3aS,7aR,E)-1-((R)-4-((S)-2-(difluoromethyl)morpholino)butan-2-yl)-7a-methyloctahydro-4H-inden-4-ylidene)ethylidene)-2-methylenecyclohexane-1,3-diol] |
| 10 to 100 | C=C1/C(=C\C=C2/CCC[C@]3(C)[C@@H]([C@H](C)CN4CCO[C@@H](C(F)F)C4)CC[C@@H]23)C[C@@H](O)C[C@@H]1O [Compound D006, (1R,3S,Z)-5-(2-((1R,3aS,7aR,E)-1-((S)-1-((R)-2-(difluoromethyl)morpholino)propan-2-yl)-7a-methyloctahydro-4H-inden-4-ylidene)ethylidene)-4-methylenecyclohexane-1,3-diol] |
| 10 to 100 | CCC1(O)CCCN(C[C@@H](C)[C@H]2CC[C@H]3/C(=C/C=C4C[C@@H](O)C[C@H](O)C4)CCC[C@]23C)C1 (single isomer, unassigned) [Compound C044a] |
| 1 to 10 | C=C1/C(=C\C=C2/CCC[C@]3(C)[C@@H]([C@H](C)CN4CCC(O)(C(F)(F)F)CC4)CC[C@@H]23)C[C@@H](O)C[C@@H]1O [Compound C001, (1R,3S,Z)-5-(2-((1R,3aS,7aR,E)-1-((S)-1-(4-hydroxy-4-(trifluoromethyl)piperidin-1-yl)propan-2-yl)-7a-methyloctahydro-4H-inden-4-ylidene)ethylidene)-4-methylenecyclohexane-1,3-diol] |
| 10 to 100 | C=C1/C(=C\C=C2/CCC[C@]3(C)[C@@H]([C@H](C)CN4CCOC(C(F)(F)F)C4)CC[C@@H]23)C[C@@H](O)[C@H](C)[C@@H]1O (single isomer, unassigned) [Compound D009b] |
| 1 to 10 | C=C1[C@H](O)CC(=C/C=C2\CCC[C@]3(C)[C@@H]([C@H](C)CN4CCO[C@@H](C)C4)CC[C@@H]23)C[C@H]1O [Compound D010, (1R,3R)-5-(2-((1R,3aS,7aR,E)-7a-methyl-1-((S)-1-((S)-2-methylmorpholino)propan-2-yl)-octahydro-4H-inden-4-ylidene)ethylidene)-2-methylene-cyclohexane-1,3-diol] |
